Measurements published in patent publication US10072034B2, “Kinase inhibitors” (Respivert Limited, priority 2016, dated 2018).
In brackets after ≈: the same amount, converted by molar mass. Where a name gives a salt, the structure may show the parent alone. Read-outs that look alike come from different tables or passages of the source.

Key:
IL-8 release in PBMCs = assay: LPS-induced IL-8 release in PBMC cells (assay (b)); type: cell-based; conditions: Homo sapiens, LPS-stimulated PBMCs
Excerpt: Peripheral blood mononuclear cells (PBMCs) from healthy subjects are separated from whole blood using a density gradient (Lymphoprep, Axis-Shield Healthcare). […] The supernatant is harvested for determination of IL-8 and TNFα concentrations by sandwich ELISA (Duo-set, R&D systems) and read on the fluorescence microplate reader (Varioskan® Flash, ThermoFisher Scientific).

[1] = Solubility in fasted-state simulated colonic fluid (FaSSCoF) at pH 6.5; type: physicochemical; conditions: pH 6.5, 25° C.; for solubility thermodynamic at 24 h: fasted-state simulated colonic fluid (FaSSCoF), 25 °C, pH 6.5, fassgf or other biorelevant, thermodynamic from solid
Method: The solubilities of compounds of the invention in FaSSCoF at pH 6.5 are determined using a modification of a previously-reported procedure (Vertzoni, M., et al. Pharm. Res. 2010, 27, 2187-2196). In place of the bile salt extract employed in the original procedure (which extract is no longer available), the modified procedure uses a mixture of sodium taurocholate (0.15 g), glycocholic acid (0.15 g), ursodeoxycholic acid (0.05 g), cholic acid (0.05 g), and glycodeoxycholic acid (0.05 g). These five bile acids are ground together with a mortar and pestle to produce a fine white powder that is incorporated into the FaSSCoF, as outlined below.
FaSSCoF medium: Tris(hydroxymethyl)aminomethane (Tris; 0.275 g) and maleic acid (0.44 g) are dissolved in water (35 mL) to give a solution whose pH is adjusted to 6.5 by treatment with 0.5M NaOH (ca. 12 mL). The solution is then made up to 50 mL with water. A portion of this Tris/maleate buffer solution (ca. 25 mL) is added to a 0.5 L round-bottomed flask, before being treated with 0.00565 g of the bile acid mixture described above. Solutions of phosphatidylcholine (0.0111 g) in DCM (0.15 mL) and palmitic acid (0.0013 g) in DCM (0.15 mL) are added, then the organic solvent is evaporated off under reduced pressure at 40° C. until a clear solution, with no perceptible DCM odour, is achieved. The volume of the evaporated solution is adjusted to 50 mL by addition of the remainder of Tris/maleate buffer, then BSA (0.115 g) is added, before being dissolved by gentle agitation.
Solubility Determination: Test compounds are suspended in the pH 6.5 FaSSCoF medium to give a maximum final concentration of 2-10 mg/mL. The suspensions are equilibrated at 25° C. for 24 h, before being filtered through a glass fibre C filter. The filtrates are then diluted as appropriate for injection and quantification by HPLC with reference to a standard. Different volumes of the standard, diluted and undiluted sample solutions are injected and the solubilities are calculated using the peak areas determined by integration of the peak found at the same retention time as the principal peak in the standard injection.

[2] = Run 1, read-out: pH 6.5 FaSSCoF Solubility Run 1
[3] = Run 2, read-out: pH 6.5 FaSSCoF Solubility Run 2

| Compound | IC50 (IL-8 release in PBMCs) | other results |
| --- | --- | --- |
| CCS(=O)(=O)Nc1cc(C(C)(C)C)cc(NC(=O)Nc2ccc(Oc3ccnc(Nc4cc(OC)cc(OCCOCCOCC(=O)O)c4)c3)c3ccccc23)c1OC [Example 16] | 16.3 nM |  |
| COc1cc(Nc2nccc(Oc3ccc(NC(=O)Nc4cc(C(C)(C)C)cc(NS(C)(=O)=O)c4OC)c4ccccc34)n2)cc(OCCOCCOCCC(=O)O)c1 [Reference Compound A (sodium salt), reference compound] |  | solubility thermodynamic at 24 h ([1]; Run 3, read-out: pH 6.5 FaSSCoF Solubility Run 3): 30 µg/mL; solubility thermodynamic at 24 h ([1]; Run 4, read-out: pH 6.5 FaSSCoF Solubility Run 4): 30 µg/mL; pH 6.5 FaSSCoF Solubility Run 1 ([1]; 24 h, Run 1): 0.18 mg/mL; pH 6.5 FaSSCoF Solubility Run 2 ([1]; 24 h, Run 2): 0.12 mg/mL |
| COc1cc(Nc2cc(Oc3ccc(NC(=O)Nc4cc(C(C)(C)C)cc(NS(C)(=O)=O)c4OC)c4ccccc34)ccn2)cc(OCCOCCOCC(=O)NS(C)(=O)=O)c1 [Example 6] | 18.1 nM |  |
| COc1cc(Nc2cc(Oc3ccc(NC(=O)Nc4cc(C(C)(C)C)cc(NS(C)(=O)=O)c4OC)c4ccccc34)ccn2)cc(OCCOCCOC(C)C(=O)O)c1 (single isomer, unassigned) [20(a)] |  | solubility thermodynamic at 24 h [1, 2]: 620 µg/mL (≈ 745 µM); solubility thermodynamic at 24 h [1, 3]: 640 µg/mL (≈ 769 µM) |
| COc1cc(Nc2cc(Oc3ccc(NC(=O)Nc4cc(C(C)(C)C)cc(S(C)(=O)=O)c4OC)c4ccccc34)ccn2)cc(OCCOCCOCC(=O)O)c1 [Example 9, 2-(2-(2-(3-((4-((4-(3-(5-(tert-Butyl)-2-methoxy-3-(methylsulfonyl)phenyl)ureido)naphthalen-1-yl)oxy)pyridin-2-yl)amino)-5-methoxphenoxy)ethoxy)ethoxy)acetic acid] | 11.7 nM | solubility thermodynamic at 24 h [1, 2]: 460 µg/mL (≈ 573 µM); solubility thermodynamic at 24 h [1, 3]: 540 µg/mL (≈ 673 µM) |
| COc1cc(Nc2cc(Oc3ccc(NC(=O)Nc4cc(C(C)(C)C)cc([S+](C)[O-])c4OC)c4ccccc34)ccn2)cc(OCCOCCOCC(=O)O)c1 (centres unmarked) [Example 8, 2-(2-(2-(3-((4-((4-(3-(5-(tert-Butyl)-2-methoxy)-3-(methylsulfinyl)phenylureido)naphthalen-1-yl)oxy)pyridin-2-yl)amino)-5-methoxyphenoxy)ethoxy)ethoxy)acetic acid] | 8 nM | solubility thermodynamic at 24 h [1, 2]: 2800 µg/mL (≈ 3560 µM); solubility thermodynamic at 24 h [1, 3]: 3200 µg/mL (≈ 4070 µM) |
| COc1cc(Nc2cc(Oc3ccc(NC(=O)Nc4cc(C(C)(C)C)cc(NS(C)(=O)=O)c4OC)c4ccccc34)ccn2)cc(OCCOCCOCC(=O)NS(=O)(=O)N(C)C)c1 [Example 25] | 26.3 nM |  |
| COc1cc(Nc2cc(Oc3ccc(NC(=O)Nc4cc(C(C)(C)C)cc(NS(C)(=O)=O)c4OC)c4ccccc34)ccn2)cc(OCCOCCOC(C)C(=O)O)c1 (centres unmarked) [Example 14] |  | solubility thermodynamic at 24 h [1, 2]: 1200 µg/mL (≈ 1440 µM); solubility thermodynamic at 24 h [1, 3]: 1100 µg/mL (≈ 1320 µM) |
| COc1cc(Nc2cc(Oc3ccc(NC(=O)Nc4cc(C(C)(C)C)on4)c4ccccc34)ccn2)cc(OCCOCCOCC(=O)O)c1 [Example 17, 2-(2-(2-(3-((4-((4-(3-(5-(tert-Butyl)isoxazol-3-yl)ureido)naphthalen-1-yl)oxy)pyridin-2-yl)amino)-5-methoxyphenoxy)ethoxy)ethoxy)acetic acid] |  | solubility thermodynamic at 24 h [1, 2]: 1700 µg/mL (≈ 2480 µM); solubility thermodynamic at 24 h [1, 3]: 1500 µg/mL (≈ 2190 µM) |
| COc1cc(Nc2cc(Oc3ccc(NC(=O)Nc4cc(C(C)(C)C)cc(P(C)(C)=O)c4OC)c4ccccc34)ccn2)cc(OCCOCCOCC(=O)O)c1 [Example 10, 2-(2-(2-(3-((4-((4-(3-(5-(tert-Butyl)-3-(dimethylphosphoryl)-2-methoxyphenyl)ureido)-naphthalen-1-yl)oxy)pyridin-2-yl)amino)-5-methoxyphenoxy)ethoxy)ethoxy)acetic acid] | 26.5 nM |  |
| COc1cc(Nc2cc(Oc3ccc(NC(=O)Nc4cc(C(C)(C)C)cc(NS(C)(=O)=O)c4OC)c4ccccc34)ccn2)cc(OCCOCc2cc(C(=O)O)cs2)c1 [Example 27] | 7.3 nM |  |
| COc1cc(Nc2cc(Oc3ccc(NC(=O)Nc4cc(C(C)(C)C)cc(NS(C)(=O)=O)c4OC)c4ccccc34)ccn2)cc(OCCOCCn2cc(C(=O)O)cn2)c1 [Example 22] | 18.1 nM |  |
| COc1cc(Nc2cc(Oc3ccc(NC(=O)Nc4cc(C(C)(C)C)cc(NS(C)(=O)=O)c4OC)c4ccccc34)ccn2)cc(OCCOCCSCC(=O)O)c1 [Example 19, 2-((2-(2-(3-((4-((4-(3-(5-(tert-Butyl)-2-methoxy-3-(methylsulfonamido)phenyl)ureido)-naphthalen-1-yl)oxy)pyridin-2-yl)amino)-5-methoxyphenoxy)ethoxy)ethyl)thio)acetic acid] | 2.9 nM | solubility thermodynamic at 24 h [1, 2]: 30 µg/mL (≈ 36 µM); solubility thermodynamic at 24 h [1, 3]: 30 µg/mL (≈ 36 µM) |
| COc1cc(Nc2cc(Oc3ccc(NC(=O)Nc4cc(C(C)(C)C)cc(NS(C)(=O)=O)c4OC)c4ccccc34)ccn2)cc(OCCOCCOCc2cc(=O)o[nH]2)c1 [Example 18] | 29.3 nM |  |
| CCS(=O)(=O)c1cc(C(C)(C)C)cc(NC(=O)Nc2ccc(Oc3ccnc(Nc4cc(OC)cc(OCCOCCOCC(=O)O)c4)c3)c3ccccc23)c1OC [Example 15] | 16.4 nM |  |
| COc1cc(Nc2cc(Oc3ccc(NC(=O)Nc4cc(C(C)(C)C)cc(NS(C)(=O)=O)c4OC)c4ccccc34)ccn2)cc(OCCOCc2cc(C(=O)O)co2)c1 [Example 12, 5-((2-(3-((4-((4-(3-(5-(tert-Butyl)-2-methoxy-3-(methylsulfonamido)phenyl)ureido)naphthalen-1 yl)oxy)pyridin-2-yl)amino)-5-methoxyphenoxy)ethoxy)methyl)furan-3-carboxylic acid] | 5.6 nM |  |
| [2H]C([2H])([2H])Oc1c(NC(=O)Nc2ccc(Oc3ccnc(Nc4cc(OC)cc(OCCOCCOCC(=O)O)c4)c3)c3ccccc23)cc(C(C)(C)C)cc1NS(C)(=O)=O [Example 5, 2-(2-(2-(3-((4-((4-(3-(5-(tert-Butyl)-2-(methoxy-d3)-3-(methylsulfonamido)phenyl)ureido)-naphthalen-1-yl)oxy)pyridin-2-yl)amino)-5-methoxyphenoxy)ethoxy)ethoxy)acetic acid] | 19.5 nM |  |
| COc1cc(Nc2cc(Oc3ccc(NC(=O)Nc4cc(C(C)(C)C)cc(NS(C)(=O)=O)c4OC)c4ccccc34)ccn2)cc(OCCOCC(=O)O)c1 [Example 24] | 61.9 nM |  |
| COc1cc(Nc2cc(Oc3ccc(NC(=O)Nc4cc(C(C)(C)C)cc(NS(C)(=O)=O)c4OC)c4ccccc34)ccn2)cc(OCCOCCOC(C)(C)C(=O)O)c1 [Example 21] | 14.4 nM |  |
| COc1cc(Nc2cc(Oc3ccc(NC(=O)Nc4cc(C(C)(C)C)cc(NS(C)(=O)=O)c4OC)c4ccccc34)ccn2)cc(C(=O)NCCOCCOCC(=O)O)c1 [Example 1, 2-(2-(2-(3-((4-((4-(3-(5-(tert-Butyl)-2-methoxy-3-(methylsulfonamido)phenyl)ureido)-naphthalen-1-yl)oxy)pyridin-2-yl)amino)-5-methoxybenzamido)ethoxy)ethoxy)acetic acid, hydrochloride salt] | 115 nM |  |
| COc1c(NC(=O)Nc2ccc(Oc3ccnc(Nc4cc(OCCOCCOCC(=O)O)cc(OC(F)F)c4)c3)c3ccccc23)cc(C(C)(C)C)cc1NS(C)(=O)=O [Example 28] | 20.6 nM |  |
| COc1cc(Nc2cc(Oc3ccc(NC(=O)Nc4cc(C(C)(C)C)cc(NS(C)(=O)=O)c4OC)c4ccccc34)ccn2)cc(OCCOCc2ccc(C(=O)O)s2)c1 [Example 26] | 15.3 nM |  |
| COc1cc(Nc2cc(Oc3ccc(NC(=O)Nc4cc(C(C)(C)C)cc(NS(C)(=O)=O)c4OC)c4ccccc34)ccn2)cc(OCCOCC2CC(C(=O)O)CO2)c1 (centres unmarked) [Example 13, 5-((2-(3-((4-((4-(3-(5-(tert-Butyl)-2-methoxy-3-methylsulfonamido)phenylureido)naphthalen-1-yl)oxy)pyridin-2-yl)amino)-5-methoxyphenoxy)ethoxy)methyl)tetrahydrofuran-3-carboxylic acid] | 2.8 nM |  |
